Among the test systems are 786-0; A549; ACHN; COLO 205; DU-145; EKVX; HCC 2998; HCT-116; HCT-15; LOX IMVI; MCF7; NCI-H23; NCI-H460; NCI/ADR-RES; RPMI-8226; SF-268; SF-295; SK-OV-3; SR; SW-620.
Holding throughout (assay): inhibition of tumour cell growth, NCI panel, 48 h

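Results reflect a 48-hour exposure of cells in 96-well plates to compound at five concentrations. GI50 = concentration required for 50% inhibition of growth.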 Activity calls are given as the source filed them. No stated cut-off is given here; in the data, active = GI50 up to about 1.1 µM and inactive = higher. Some results are limits rather than exact numbers.

`CCN1CCN(c2nc3ccccc3nc2C(=O)c2ccc(OC)cc2)CC1`: the GI50 is 19.4 µM (inactive) with 786-0; 23.8 µM (inactive) in the experiment on A549; 27.8 µM (inactive) in the experiment on ACHN; > 100 µM (inactive) in the experiment on COLO 205; > 100 µM (inactive) with DU-145; 47.1 µM (inactive) in the experiment with EKVX. Also, the GI50 with HCC 2998 was > 100 µM (inactive); in the experiment on HCT-116, 6.07 µM (inactive); with HCT-15 it was 49.4 µM; in the experiment with LOX IMVI, 24.8 µM (inactive); with MCF7, 7.1 µM (inactive); in the experiment with NCI-H23 it was 27 µM (inactive). Besides, the GI50 is 21.5 µM (inactive) in the experiment with NCI-H460; 45.1 µM (inactive) in the experiment on NCI/ADR-RES; 7.19 µM (inactive) with RPMI-8226; 29.4 µM (inactive) with SF-268; 32.7 µM (inactive) with SF-295; > 100 µM (inactive) in the experiment on SK-OV-3. Moreover, the values for the GI50 with SR and in the experiment with SW-620 were 11.7 µM (inactive) and 30.3 µM (inactive), respectively.

For `Nc1nc(N)c2nc(CNc3ccc(C(=O)NC(CCCCNC(=O)c4ccccc4C(=O)O)C(=O)O)cc3)cnc2n1` (stereo not given), the GI50 with 786-0 is 0.01 µM (active); in the experiment on A549, 0.01 µM (active); with ACHN, 0.01 µM (active); with COLO 205, 0.01 µM (active); in the experiment on DU-145, 0.01 µM (active); in the experiment with EKVX, > 34.4 µM (inactive). Also, the GI50 in the experiment with HCC 2998 is 0.01 µM (active); with HCT-116 it was 0.01 µM (active); in the experiment on HCT-15 it was 0.01 µM; with LOX IMVI, 0.01 µM (active); in the experiment with MCF7 it was 0.01 µM (active); in the experiment on NCI-H23 it was 0.0143 µM (active). Further, the GI50 in the experiment on NCI-H460 was 0.01 µM (active); in the experiment with NCI/ADR-RES it was 0.01 µM (active); with RPMI-8226, 0.01 µM (active); with SF-268, 0.01 µM (active); in the experiment with SF-295 it was < 0.0332 µM (active); in the experiment with SK-OV-3, > 100 µM (inactive). In addition, the GI50 with SR and in the experiment with SW-620 was 0.01 µM (active) throughout.

As for `CC(C)(C)c1cc([N+](=O)[O-])cc([N+](=O)[O-])c1O` [DINOTERB], the GI50 with 786-0 was > 10 µM (inactive); in the experiment on A549, 7.64 µM (inactive); in the experiment with ACHN it was > 10 µM (inactive); in the experiment with COLO 205 it was > 10 µM (inactive); in the experiment with DU-145 it was 9.59 µM (inactive); with EKVX it was 9.86 µM (inactive). Also, the GI50 in the experiment with HCC 2998 was > 10 µM (inactive); in the experiment on HCT-116, > 10 µM (inactive); with HCT-15, above 10 µM; in the experiment on LOX IMVI, > 10 µM (inactive); with MCF7, > 10 µM (inactive); in the experiment with NCI-H23, > 10 µM (inactive). Further, the GI50 was 7.98 µM (inactive) in the experiment with NCI-H460; > 10 µM (inactive) in the experiment on NCI/ADR-RES; 4.12 µM (inactive) in the experiment with RPMI-8226; > 10 µM (inactive) in the experiment with SF-268; > 10 µM (inactive) in the experiment on SF-295; > 10 µM (inactive) in the experiment with SK-OV-3. In addition, the GI50 with SR and in the experiment with SW-620 was > 10 µM (inactive) in each case.
